Reference: PMC10916382, “Repurposing screen identifies novel candidates for broad-spectrum coronavirus antivirals and druggable host targets” (Antimicrobial Agents and Chemotherapy, 2024)
pIC50: −log10 of the molar value. Counter-ions that a name gives are not always drawn. Like-named read-outs stand apart in the source and are kept apart here.

Experiments:
HCoV-229E = test: microbe, parasite or virus in culture; assay type: cell-based, Homo sapiens sapiens
[1] = HCoV 229E infection, dose series, max. dose 5 µM, read-out: IC50
[2] = Huh-7.5 cells, dose series, maximum tested dose 5 µM

Structure (SMILES)	pIC50 (HCoV-229E; [1])	CC50 (µM) (Huh-7.5/F-Luc cells; [2])	% cell viability at max. dose [5 µM] (Huh-7.5/F-Luc cells; at max. dose 5 µM)	Anti-SARS-CoV-2 screening on Calu-3 cells: viability [% of control] (SARS-CoV-2; Calu-3 cells)	Anti-SARS-CoV-2 screening on Calu-3 cells: intracellular SARS-CoV-2 infection measured via immunofluorescence imaging [% of control] (SARS-CoV-2; Calu-3 cells)	pIC50 (HCoV-229E; read-out: IC50)	antiviral activity against HCoV-229E (HCoV-229E; Huh-7.5/F-Luc cells)	% cell viability at max. dose [5 µM] (Huh-7.5/F-Luc cells)	CC50 (µM) (Huh-7.5/F-Luc cells)	Anti-SARS-CoV-2 screening on Calu-3 cells: viability [% of control] (SARS-CoV-2)	pIC50 (HCoV-229E; Human coronavirus 229E, Huh7.5)
COc1cc(/C=C/C=C/C(=O)NCCN2CCC(OC(c3ccccc3)c3ccccc3)CC2)ccc1O [TMK-777]	5.95	greater than maximum tested dose	150.43%	98.98 % of control	102.42 % of control	–	–	–	–	–	–
CC(C)(O)c1ccc2c(c1)/C(=C/CCN1CC[C@](O)(c3ccc(Cl)cc3)C(C)(C)C1)c1cccnc1CO2 [MLN-3897]	6.02	greater than maximum tested dose	122.09%	106.59 % of control	101.50 % of control	–	–	–	–	–	–
C1=C(c2ccc(CN3CCCCC3)cc2)N2CCN=C2c2ccccc21 [SDZ-62-434]	6.12	greater than maximum tested dose	157.85%	104.96 % of control	96.11 % of control	–	–	–	–	–	–
COc1ccc2cc(S(=O)(=O)N[C@H](CC(=O)N[C@H](Cc3ccc(CN4[C@H](C)CCC[C@@H]4C)cc3)C(=O)N(C)C(C)C)c3ccc4c(c3)OCO4)ccc2c1 [SSR240612]	6.28	greater than maximum tested dose	127.22%	108.83 % of control	125.70 % of control	–	–	–	–	–	–
OCCNCCOc1ccc(/C(=C(\c2ccccc2)C(F)(F)F)c2ccccc2)cc1 [PANOMIFENE]	–	greater than maximum tested dose	141.70%	98.59 % of control	95.32 % of control	6.05	–	–	–	–	–
CC(C)c1ccc(C(=O)c2cccs2)c(SCCCCCCCCN(C)C)n1 [Y 29794]	6.48	greater than maximum tested dose	121.37%	88.61 % of control	99.31 % of control	–	–	–	–	–	–
C=C1C[C@@H]2CC[C@@]34C[C@H]5O[C@H]6[C@@H](O3)[C@H]3O[C@H](CC[C@@H]3O[C@H]6[C@H]5O4)CC(=O)C[C@@H]3[C@@H](OC)[C@@H](C[C@H](O)CN)O[C@H]3C[C@H]3O[C@@H](CC[C@@H]1O2)C[C@@H](C)C3=C [Eribulin (mesylate)]	7.30	greater than maximum tested dose	97.37%	41.43 % of control	29.49 % of control	–	–	–	–	–	–
CN(C)CCC(Sc1cccc2ccccc12)c1cccs1 (centres unmarked) [VUFB 18271]	6.03	greater than maximum tested dose	117.62%	105.83 % of control	114.60 % of control	–	–	–	–	–	–
COc1cc2c(cc1N1C[C@@H](C)N[C@@H](C)C1)N(C(=O)c1ccc(-c3ccc(-c4noc(C)n4)cc3C)cc1)CC2 [SB-616234-A]	6.24	greater than maximum tested dose	143.19%	119.80 % of control	117.99 % of control	–	–	–	–	–	–
COC(=O)C1=C(C)NC(C)=C(C(=O)OCCCCNC[C@H](O)COc2ccccc2)C1c1cccc([N+](=O)[O-])c1 (some centres unmarked) [YM 430]	6.09	greater than maximum tested dose	137.51%	101.27 % of control	99.21 % of control	–	–	–	–	–	–
CC/C(=C(\c1ccc(O)cc1)c1ccc(OCCNC)cc1)c1ccccc1.Cl [Endoxifen (hydrochloride)]	6.25	greater than maximum tested dose	148.79%	90.44 % of control	114.51 % of control	–	–	–	–	–	–
Oc1ccc2c(c1)CC[C@H](c1ccccc1)[C@H]2c1ccc(OCCN2CCCC2)cc1 [Lasofoxifene tartrate]	6.27	greater than maximum tested dose	142.22%	103.26 % of control	99.99 % of control	–	–	–	–	–	–
CC[C@H](NC(=O)[C@H](CS(=O)(=O)CC1CC1)N[C@@H](c1ccc(F)cc1)C(F)(F)F)C(=O)C(=O)NC1CC1 [VBY-825, reference compound]	6.68	greater than maximum tested dose	147.45%	100.68 % of control	101.42 % of control	–	antiviral activity	–	–	–	–
c1ccc(CCCC(Oc2ccccc2OCc2ccccc2)C2=NCCN2)cc1 (centres unmarked) [MDL 102588]	6.28	greater than maximum tested dose	109.08%	101.49 % of control	108.93 % of control	–	–	–	–	–	–
CCN(CC)CCCN1c2ccccc2Sc2ccc(Cl)cc21.Cl [Chlorproethazine HCl]	6.08	greater than maximum tested dose	142.02%	91.47 % of control	133.96 % of control	–	–	–	–	–	–
O=S(=O)(Nc1ccc(CCNC[C@H](O)c2cccnc2)cc1)c1ccc(-c2nc(-c3ccc(C(F)(F)F)cc3)cs2)cc1 [L 796568]	6.11	greater than maximum tested dose	149.63%	84.86 % of control	111.47 % of control	–	–	–	–	–	–
Cc1c(-c2ccccc2)oc2ccc(OCCCCCCN3CCC(O)CC3)cc2c1=O [NPC 16377]	5.97	greater than maximum tested dose	107.69%	101.43 % of control	119.40 % of control	–	–	–	–	–	–
Oc1ccc(CCN2CCC(Nc3nc4ccccc4n3Cc3ccc(F)cc3)CC2)cc1 [DESMETHYLASTEMIZOLE]	–	greater than maximum tested dose	160.37%	121.52 % of control	109.56 % of control	5.97	–	–	–	–	–
CN1CC[C@H](c2c(O)cc(O)c3c(=O)cc(-c4ccccc4Cl)oc23)[C@H](O)C1 [Flavopiridol (Alvocidib)]	6.85	greater than maximum tested dose	115.14%	90.90 % of control	15.82 % of control	–	–	–	–	–	–
Nc1ncccc1-c1nc2ccc(-c3ccccc3)nc2n1-c1ccc(C2(N)CCC2)cc1 [ARQ-092 (Miransertib mesylate)]	–	greater than maximum tested dose	98.72%	27.64 % of control	126.86 % of control	–	–	–	–	–	–
C=CCc1c(OCCCNCc2ccccc2)ccc2c1[nH]c1ccccc12 [YM-75440]	6.14	greater than maximum tested dose	65.35%	100.37 % of control	109.36 % of control	–	–	–	–	–	–
CC1(C)CC[C@]2(NC(=O)C(C)(F)F)CC[C@]3(C)[C@H](C(=O)C=C4[C@@]5(C)C=C(C#N)C(=O)C(C)(C)[C@@H]5CC[C@]43C)[C@@H]2C1 [RTA-63415 / Omaveloxolone]	7.10	–	–	–	99.52 % of control	–	–	77.27%	greater than maximum tested dose	122.72 % of control	–
CCNCc1cncc(-c2ccc3[nH]nc(-c4nc5c(F)cc(F)cc5[nH]4)c3c2)c1C [AG-024322]	6.11	greater than maximum tested dose	151.27%	54.61 % of control	108.94 % of control	–	–	–	–	–	–
COc1ccc2cc1Oc1ccc(cc1)C[C@H]1c3c(cc4c(c3Oc3cc5c(cc3OC)CCN(C)[C@@H]5C2)OCO4)CCN1C [Cepharanthine]	–	greater than maximum tested dose	–	–	–	–	–	–	–	–	6.33
OC(CNCC(O)C1CCc2cc(F)ccc2O1)C1CCc2cc(F)ccc2O1 (centres unmarked) [Nebivolol HCl]	–	greater than maximum tested dose	–	–	–	–	–	–	–	–	6.00
